Values after ≈ are worked out from the molar mass of the structure shown. Active and inactive are the calls of the source. The rule behind the calls is not given here.
Experiments:
[1] = system: unidentified influenza virus; test: Thermal stabilization of C-terminal 6His-tagged Influenza virus PA (239 to 716 residues) extracted from Escherichia coli BL21(DE3)pLysS/N-terminal Influenza virus PB1 (1 to 25 residues) assessed as shift in melting temperature by nano-DSF assay
[2] = Permeability of compound assessed as membrane retention incubated for 5 hrs by PAMPA; type: ADME
[3] = Thermodynamic solubility in aqueous media incubated for 24 hrs by shake flask method; type: physicochemical; conditions: read-out: Therm_solubility
SARS-CoV-2 = test: Antiviral activity against SARS CoV-2 infected in human Caco-2 cells assessed as inhibition of viral replication; type: functional, organism-based; conditions: Severe acute respiratory syndrome coronavirus 2
Influenza A virus [4] = test: Antiviral activity against Influenza A virus PR/8/34 infected in MDCK cells incubated for 48 hrs by plaque reduction assay; type: functional, organism-based; conditions: Influenza A virus, PR/8/34, MDCK, 48 h
[5] = (§1) Antiviral activity against HPIV infected in human A549 cells assessed as inhibition of viral replication; type: functional, cell-based
[6] = Cytotoxicity against HEK293T cells incubated for 48 hrs by MTT assay; type: toxicity, cell-based, HEK-293T; conditions: human
Influenza A virus [7] = test: Antiviral activity against Influenza A virus PR/8/34 (H1N1) infected in MDCK cells incubated for 48 hrs by plaque reduction assay; type: functional, organism-based
[8] = Apparent permeability of compound incubated for 5 hrs by PAMPA; type: ADME
[9] = Inhibition of 6His-tagged Influenza virus PA (239 to 716 residues) extracted from Escherichia coli BL21(DE3)pLysS/GST-tagged Influenza virus PB1 (1 to 25 residues) by ELISA; design: species or system unidentified influenza virus
[10] = Metabolic stability in human liver microsomes assessed as unmetabolized compound at 50 uM incubated for 1 hr in presence of NADPH by UV/LC-MS analysis; type: ADME, Microsome; conditions: read-out: Stability
[11] = Metabolic stability in rat plasma at 2 mM measured upto 1440 mins by UV/LC-MS analysis; type: ADME, cell-free; conditions: read-out: Stability
Caco-2 = test: Cytotoxicity against human Caco-2 cells; type: toxicity, cell-based
Dengue virus = test: Antiviral activity against DENV infected in human Huh-7 cells assessed as inhibition of viral replication; type: functional, organism-based
[12] = Cytotoxicity against MDCK cells incubated for 48 hrs by MTT assay; type: toxicity, cell-based, Canis lupus familiaris; conditions: dog
HEK293T [13] = test: Inhibition of heterodimerization of Influenza virus GFP-fused PA/PB1 transfected in HEK293T cells assessed as impaired nuclear import at 0.5 uM incubated for 14 hrs by CLSM analysis; type: cell-based; conditions: unidentified influenza virus
Influenza A virus [14] = test: Antiviral activity against Influenza A virus Wisconsin/67/05 (H3N2) infected in MDCK cells incubated for 48 hrs by plaque reduction assay; type: functional, organism-based
[15] = (§2) Cytotoxicity against human A549 cells; type: toxicity, cell-based; conditions: A549 cells
[16] = Selectivity index, ratio of CC50 for MDCK cells to EC50 for Influenza A virus PR/8/34 infected in MDCK cells; type: toxicity, cell-based; conditions: dog, read-out: Ratio CC50/EC50
Influenza B virus [17] = test: Antiviral activity against Influenza B virus Malaysia/2506/04 infected in MDCK cells incubated for 48 hrs by plaque reduction assay; type: functional, organism-based; conditions: Malaysia/2506/04, MDCK
Influenza B virus [18] = test: Antiviral activity against ancestral Influenza B virus Lee/40 infected in MDCK cells incubated for 48 hrs by plaque reduction assay; type: functional, organism-based; conditions: Lee/40, MDCK
West Nile virus = test: Antiviral activity against WNV infected in human Huh-7 cells assessed as inhibition of viral replication; type: functional, organism-based
Huh-7 = test: Cytotoxicity against human Huh-7 cells; type: toxicity, cell-based
Influenza B virus [19] = test: Antiviral activity against Influenza B virus Brisbane/60/2008 clinical isolate infected in MDCK cells expressing ST6Gal by crystal violet staining based plaque reduction assay; type: functional, organism-based; conditions: Brisbane/60/2008, MDCK
Influenza A virus [20] = test: Antiviral activity against Influenza A virus Washington/29/2009 (H1N1) clinical isolate infected in MDCK cells expressing ST6Gal by crystal violet staining based plaque reduction assay; type: functional, organism-based
Influenza B virus [21] = test: Antiviral activity against Influenza B virus Utah/09/2014 clinical isolate infected in MDCK cells expressing ST6Gal by crystal violet staining based plaque reduction assay; type: functional, organism-based; conditions: Utah/09/2014, MDCK
Influenza B virus [22] = test: Antiviral activity against Influenza B virus Memphis/20/1996 clinical isolate infected in MDCK cells expressing ST6Gal by crystal violet staining based plaque reduction assay; type: functional, organism-based; conditions: Memphis/20/1996, MDCK
Influenza B virus [23] = test: Antiviral activity against Influenza B virus Phuket/3073/2013 clinical isolate infected in MDCK cells expressing ST6Gal by crystal violet staining based plaque reduction assay; type: functional, organism-based; conditions: Phuket/3073/2013, MDCK
[24] = Cytotoxicity against MDCK cells assessed as reduction in cell viability incubated for 48 hrs by Neutral red uptake assay; type: toxicity, cell-based, Canis lupus familiaris; conditions: dog
Influenza A virus [25] = test: Antiviral activity against Influenza A virus WSN/33 (H1N1) clinical isolate infected in MDCK cells expressing ST6Gal by crystal violet staining based plaque reduction assay; type: functional, organism-based
Influenza A virus [26] = test: Antiviral activity against Influenza A virus Switzerland/9715293/2013 (H3N2) clinical isolate infected in MDCK cells expressing ST6Gal by crystal violet staining based plaque reduction assay; type: functional, organism-based
[27] = Inhibition of heterodimerization of C-terminal His-tagged Influenza virus PA (239 to 716 residues)/N-terminal GST-tagged Influenza virus PB1 (1 to 25 residues) by ELISA; design: species or system unidentified influenza virus
Influenza B virus [28] = test: Antiviral activity against Influenza B virus Wisconsin/1/2010 clinical isolate infected in MDCK cells expressing ST6Gal by crystal violet staining based plaque reduction assay; type: functional, organism-based; conditions: Wisconsin/1/2010, MDCK
Influenza A virus [29] = test: Antiviral activity against Influenza A virus Texas/04/2009 (H1N1) clinical isolate infected in MDCK cells expressing ST6Gal by crystal violet staining based plaque reduction assay; type: functional, organism-based
Influenza A virus [30] = test: Antiviral activity against Oseltamivir-sensitive Influenza A virus Denmark/524/2009 (H1N1) clinical isolate infected in MDCK cells expressing ST6Gal by crystal violet staining based plaque reduction assay; type: functional, organism-based
[31] = Selectivity index, ratio of CC50 for MDCK cells to EC50 for Influenza A virus Puerto Rico/8/1934 (H1N1) infected in MDCK cells; type: toxicity, cell-based; conditions: dog, read-out: Ratio CC50/EC50
Influenza A virus [32] = test: Antiviral activity against Influenza A virus Puerto Rico/8/1934 (H1N1) infected in MDCK cells incubated for 48 hrs by plaque reduction assay; type: functional, organism-based
[33] = Inhibition of heterodimerization of 6His-tagged Influenza virus PA (239 to 716 residues)/GST-tagged Influenza virus PB1 (1 to 25 residues) incubated overnight by ELISA; design: species or system unidentified influenza virus
Influenza A virus [34] = test: Antiviral activity against Amantadine/Oseltamivir-sensitive Influenza A virus Solomon Islands/03/2006 (H1N1) infected in MDCK cells by plaque reduction assay; type: functional, organism-based
[35] = Cytotoxicity against MDCK cells by Neutral red uptake assay; type: toxicity, cell-based, Canis lupus familiaris; conditions: dog
[36] = Inhibition of heterodimerization of C-terminal His-tagged Influenza virus PA (239 to 716 residues)/N-terminal GST-tagged Influenza virus PB1 (1 to 25 residues) incubated overnight by ELISA; design: species or system unidentified influenza virus
Influenza B virus [37] = test: Antiviral activity against Influenza B virus Brisbane/60/2008 infected in MDCK cells by plaque reduction assay; type: functional, organism-based; conditions: Brisbane/60/2008, MDCK
A549 [38] = test: as §1; type: functional, cell-based
[39] = Metabolic stability in rat plasma at 2 mM measured after 1440 mins by UV/LC-MS analysis; type: ADME, cell-free; conditions: read-out: Stability
[40] = Metabolic stability in rat plasma at 2 mM measured for 5 to 60 mins by UV/LC-MS analysis; type: ADME, cell-free; conditions: time 5-60 min, read-out: Stability
A549 [41] = test: as §2; type: toxicity, cell-based; conditions: a549
[42] = Binding affinity to RED-NT650-NHS-labeled C-terminal 6His-tagged recombinant Influenza virus PA (239 to 716 residues) extracted from Escherichia coli BL21(DE3)pLysS assessed as dissociation constant by MST assay; design: species or system unidentified influenza virus
HEK293T [43] = test: Inhibition of heterodimerization of Influenza virus GFP-fused PA/PB1 transfected in HEK293T cells assessed as impaired nuclear import at 5 uM incubated for 14 hrs by CLSM analysis; type: cell-based; conditions: unidentified influenza virus

## O=C(Nc1sc2c(c1C(=O)Nc1ccccc1O)CCCCC2)c1ccc([N+](=O)[O-])cc1O
[1]
  Activity: Active
[2]
  Activity: 2.5%
[3]
  solubility thermodynamic at 24 h: 49.8 µM (≈ 23.3 µg/mL)
SARS-CoV-2
  Activity: inactive
Influenza A virus [4]
  EC50: 89 nM
[5]
  EC50: 21700 nM
[6]
  CC50 at 48 h: > 50000 nM
Influenza A virus [7]
  EC50: 89 nM
[8]
  Papp at 5 h: 0.78 ×10⁻⁶ cm/s
[9]
  IC50: 26500 nM
[10]
  remaining at 1 h, 50 µM: 93.8%
[11]
  remaining at 24 h, 2000 µM: ~100%
Caco-2
  Activity: Non-Toxic
Dengue virus
  Activity: inactive
[12]
  CC50 at 48 h: 224000 nM
HEK293T [13]
  inhibition: Active
Influenza A virus [14]
  EC50: 54 nM
[15]
  CC50: > 40000 nM
[16]
  selectivity ratio: 2520
Influenza B virus [17]
  EC50: 88 nM
Influenza B virus [18]
  EC50: 87 nM
West Nile virus
  Activity: inactive
Huh-7
  Activity: Non-Toxic

## C[C@@H](c1ccccc1)n1nnnc1[C@H](c1ccsc1)N1CCC(n2c(=O)[nH]c3ccccc32)CC1
Influenza B virus [19]
  EC50: 600 nM
Influenza A virus [20]
  EC50: 600 nM
Influenza B virus [21]
  EC50: 600 nM
Influenza B virus [22]
  EC50: 600 nM
Influenza B virus [23]
  EC50: 600 nM
[24]
  CC50 at 48 h: > 300000 nM
Influenza A virus [25]
  EC50: 600 nM
Influenza A virus [26]
  EC50: 600 nM
[27]
  IC50: 7600 nM
Influenza B virus [28]
  EC50: 600 nM
Influenza A virus [29]
  EC50: 600 nM
Influenza A virus [30]
  EC50: 600 nM

## O=C(Nc1sc2c(c1C(=O)Nc1ccc(F)cc1)CCCCC2)c1ccccc1O
[31]
  selectivity ratio: > 284
Influenza A virus [32]
  EC50: 880 nM
[12]
  CC50 at 48 h: > 250000 nM
[33]
  IC50: 5200 nM

## O=C(Nc1sc2c(c1C(=O)Nc1ccc(Cl)cc1)CCCCC2)c1ccccc1O
[31]
  selectivity ratio: > 208
Influenza A virus [32]
  EC50: 1200 nM
[12]
  CC50 at 48 h: > 250000 nM
[33]
  IC50: 15000 nM

## O=C1C(c2ncc([N+](=O)[O-])s2)CC[C@@H]2CCCC[C@@H]12 (some centres undefined)
Influenza A virus [34]
  EC50: 930 nM
[35]
  CC50: > 300000 nM
[36]
  IC50: 18500 nM
Influenza B virus [37]
  EC50: 930 nM

## N#Cc1ccc(C(=O)Nc2sc3c(c2C(=O)Nc2ccccc2O)CCCCC3)cc1
[1]
  Activity: Active
[2]
  Activity: 57%
[3]
  solubility thermodynamic at 24 h: 17.6 µM (≈ 7.59 µg/mL)
SARS-CoV-2
  Activity: inactive
Influenza A virus [4]
  EC50: 380 nM
A549 [38]
  Activity: inactive
[6]
  CC50 at 48 h: > 50000 nM
Influenza A virus [7]
  EC50: 380 nM
[8]
  Papp at 5 h: 3.48 ×10⁻⁶ cm/s
[39]
  remaining at 24 h, 2000 µM: 81%
[9]
  IC50: 19300 nM
[10]
  remaining at 1 h, 50 µM: 93.3%
[40]
  remaining at 2000 µM: 95%
Caco-2
  Activity: Non-Toxic
Dengue virus
  Activity: inactive
[12]
  CC50 at 48 h: > 250000 nM
HEK293T [13]
  inhibition: Active
Influenza A virus [14]
  EC50: 220 nM
A549 [41]
  Activity: Non-Toxic
[16]
  selectivity ratio: > 667
Influenza B virus [17]
  EC50: 350 nM
Influenza B virus [18]
  EC50: 300 nM
West Nile virus
  Activity: inactive
Huh-7
  Activity: Non-Toxic
[42]
  Kd: 5750 nM

## N#Cc1ccc(C(=O)Nc2sc3c(c2C(=O)Nc2ccc(C(F)(F)F)cc2)CCCCC3)cc1
[1]
  Activity: inactive
Influenza A virus [4]
  EC50: 1800 nM
[6]
  CC50 at 48 h: > 50000 nM
[9]
  IC50: > 200000 nM
[12]
  CC50 at 48 h: > 250000 nM
[16]
  selectivity ratio: > 135
HEK293T [43]
  inhibition: inactive

— ChEMBL document CHEMBL5614404, “Optimization of potent, broad-spectrum, and specific anti-influenza compounds targeting RNA polymerase PA-PB1 heterodimerization” (Eur J Med Chem, 2024)
